Earlier results in patent publication US7632832B2, “CGRP receptor antagonists” (Merck & Co., Inc., priority 2005, dated 2009).

Test system: CGRP
Settings: marmoset, electrical stimulation of the trigeminal ganglion (Doods et al. 2000)

In the case of NCCCC[C@H](NC(=O)[C@@H](Cc1cc(Br)c(O)c(Br)c1)NC(=O)N1CCC(N2Cc3ccccc3NC2=O)CC1)C(=O)N1CCN(c2ccncc2)CC1 [BIBN4096BS], the “effect on increase in facial blood flow” value is given as “blocked”.
